Laboratory results reported in paper PMC7718890 (Scientific Reports, 2020).
pIC50: −log10 of the molar value. Like-named read-outs stand apart in the source and are kept apart here.

Target: CarD·RNAP binding (CarD association with RPo) (Mycobacterium tuberculosis, UniProt P9WGY7+P9WGY9+P9WJG3, D68C)
[1] = read-out: CarD-BODIPY-FL assay CCG sample IC50
[2] = read-out: CarD-BODIPY-FL assay Powder sample IC50

## COC(=O)c1noc(C)c1C(=O)/C=C/N1CCCCC1 [CCG-42210]
[1]
  pIC50: 3.97
[2]
  pIC50: 4.07

## CC(=O)Nc1ccc(NC(=O)c2ccccc2C(=O)O)cn1 [CCG-52160]
[1]
  pIC50: 4.43
[2]
  pIC50: 3.17

## O=C(NC(=O)N1CCCC1)C1CCN(c2cnc3ccccc3n2)CC1 [CCG-52363]
[1]
  pIC50: 4.22
[2]
  pIC50: 3.70

## CC(=O)Nc1ccc(NC(=O)c2nccnc2C(=O)O)cn1 [CCG-52573]
[1]
  pIC50: 4.11
[2]
  pIC50: 3.80

## CCC(=O)Nc1cccc2c(NC(=O)CC)cccc12 [CCG-53654]
[1]
  pIC50: 4.82
[2]
  pIC50: 3.73

## Cc1cc2c(NC(=O)Nc3ccccc3)cccc2nn1 [CCG-237488]
[1]
  pIC50: 4.60

## CC(=O)c1sc2nsc(SCCN3CCCC3)c2c1N [CCG-239496]
[1]
  pIC50: 4.05
[2]
  pIC50: 4.33

## CN(C)c1ncnc(Oc2ccc(Cl)cc2)c1[N+](=O)[O-] [CCG-247600]
[1]
  pIC50: 3.60
[2]
  pIC50: 3.88

## O=C(O)c1ccc(-c2nc3ccc(-c4ccc5nc(-c6ccc(C(=O)O)cc6)[nH]c5c4)cc3[nH]2)cc1 [CCG-249580]
[1]
  pIC50: 3.58
[2]
  pIC50: 3.69

## NC(=O)c1ccc(CC(=O)c2ccc(Cl)cc2)cc1 [CCG-251660]
[1]
  pIC50: 3.97
[2]
  pIC50: 4.43
